In PubChem BioAssay (NCI):
Several values for one entry are separate records, joined by “and”; a condition that tells them apart may be missing. Equal entries are not always repeated.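 Cells were grown in 96-well plates and exposed to each compound for 48 hours at five concentrations; endpoints were interpolated linearly between bracketing concentrations, or set to the highest concentration if not reached. The concentration for 50% growth inhibition is given as GI50. TGI denotes the concentration required for complete inhibition of growth.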

What was measured:
Assay in all cases: NCI-60 cell line screen, 48 h
HL-60(TB) leukemia = tested on: HL-60(TB) leukemia
HCT-116 colon = tested on: HCT-116 colon
OVCAR-5 ovarian = tested on: OVCAR-5 ovarian
NCI-H23 lung = tested on: NCI-H23 lung
UO-31 renal = tested on: UO-31 renal
A498 renal = tested on: A498 renal
RPMI-8226 leukemia = tested on: RPMI-8226 leukemia
HCC-2998 colon = tested on: HCC-2998 colon
HOP-62 NSCLC = tested on: HOP-62 NSCLC
SK-OV-3 ovarian = tested on: SK-OV-3 ovarian

Row | SMILES | GI50 (HL-60(TB) leukemia) | TGI (HL-60(TB) leukemia) | GI50 (HCT-116 colon) | TGI (HCT-116 colon) | GI50 (OVCAR-5 ovarian) | TGI (OVCAR-5 ovarian) | GI50 (NCI-H23 lung) | TGI (NCI-H23 lung) | GI50 (UO-31 renal) | TGI (UO-31 renal) | GI50 (A498 renal) | TGI (A498 renal) | GI50 (RPMI-8226 leukemia) | TGI (RPMI-8226 leukemia) | GI50 (HCC-2998 colon) | TGI (HCC-2998 colon) | GI50 (HOP-62 NSCLC) | TGI (HOP-62 NSCLC) | GI50 (SK-OV-3 ovarian) | TGI (SK-OV-3 ovarian)
1 | NC(=N\N=C/c1cccc([N+](=O)[O-])c1)/C(N)=N\N=C/c1cccc([N+](=O)[O-])c1 | > 100 µM | > 100 µM | > 100 µM | > 100 µM | > 100 µM | > 100 µM | > 100 µM | > 100 µM | > 100 µM | > 100 µM | > 100 µM | > 100 µM | > 100 µM | > 100 µM | > 100 µM | > 100 µM | > 100 µM | > 100 µM | > 100 µM | > 100 µM
2 | COc1ccc(-c2nc3ncccn3c2/C=C/C(=O)c2cc(OC)c(OC)c(OC)c2)cc1 | 2.52 µM | > 100 µM | 1.17 µM | 2.39 µM | 1.53 µM | 3.59 µM | 1.35 µM | 3.37 µM | 0.514 µM | 4.17 µM | 2.13 µM | 6.28 µM | 2.21 µM | > 100 µM | 1.58 µM | 2.92 µM | 2.83 µM | 10.3 µM | 2.5 µM | 7.01 µM
3 | CC1=C2C[C@H]3[C@@H](CC=C4C[C@@H](O)CC[C@@]43C)[C@@H]2CC[C@]12O[C@@H]1C[C@H](C)CN[C@H]1[C@H]2C | 11.5 µM and 15.7 µM | 50 µM and 55.1 µM | 10.1 µM and 16.6 µM | 24.7 µM and 31.8 µM | 11.9 µM and 29.4 µM | 50 µM and 89.6 µM | 29 µM and 29.7 µM | 50 µM and > 100 µM | 11.5 µM and 19 µM | 35.9 µM and 37.2 µM | 43.2 µM and 19.4 µM | 50 µM and 37.9 µM | 8.84 µM and 18.1 µM | 31.8 µM and 46.2 µM | 16.9 µM and 21.6 µM | 50 µM and 39.4 µM | 17.8 µM and 24.5 µM | 50 µM and 68.6 µM | 14.2 µM and 13.9 µM | 28.2 µM and 34.7 µM
4 | CCCCCCCCCCC(O)C1CCC(C(O)CCC(O)C2CCC(CCCCCCC[C@H](O)CC3=C[C@@H](C)OC3=O)O2)O1 (stereo partly specified) |  | 13.4 µM | 3.48 µM | > 53.4 µM |  | > 100 µM |  | 69.4 µM |  | > 86.1 µM |  | > 82 µM | 6.36 µM | > 100 µM |  | > 100 µM |  | > 100 µM |  | > 66.1 µM
5 | C[C@@H]1N=C(c2ccc(Br)cc2)Nc2nc3ccccn3c2C1=O | 6.49 µM | > 100 µM | 4.04 µM | > 100 µM | 23.5 µM | > 100 µM | 25.4 µM | > 100 µM | 8.11 µM | > 100 µM | 3.26 µM | 38.2 µM | 7.31 µM | > 100 µM | 21.9 µM | > 100 µM | 5.75 µM | > 100 µM | 4.41 µM | > 100 µM
6 | NC(=O)c1ccc2c(-c3ccnc(NCCCO)n3)c(-c3ccc(F)cc3)nn2c1 | > 21.9 µM | > 25 µM | > 25 µM | > 25 µM | > 25 µM | > 25 µM | > 25 µM | > 25 µM | 5.9 µM | > 25 µM | 7.24 µM | > 25 µM | > 25 µM | > 25 µM | > 25 µM | > 25 µM | > 25 µM | > 25 µM | > 24.2 µM | > 25 µM
7 | c1cc(OCCN2CCCCC2)ccc1CNc1ccc2nc(CCC3CCCCC3)[nH]c2c1 | 1.79 µM | 3.78 µM | 1.64 µM | 3.57 µM | 2.04 µM | 5.64 µM | 2.03 µM | 4.91 µM | 1.49 µM | 2.85 µM | 1.67 µM | 4.08 µM | 1.49 µM | 3.71 µM | 2.05 µM | 4.28 µM | 1.79 µM | 3.4 µM | 2.07 µM | 4.18 µM
8 | O=C([CH-]C(=O)c1ccccc1)c1ccccc1.O=C([CH-]C(=O)c1ccccc1)c1ccccc1.O=C([CH-]C(=O)c1ccccc1)c1ccccc1.[OH3+].[Y+3] | 2.4 µM | 11.5 µM | 4.18 µM | 18.3 µM | 16.9 µM | 66.1 µM | 3.51 µM | 18.9 µM | 4.51 µM | 14.7 µM | 16.3 µM | 43.1 µM | 6.04 µM | 32.2 µM | 10.3 µM | 25.8 µM | 4.5 µM | 22.5 µM | 11.2 µM | 40 µM
9 | O=P([O-])(O)OP(=O)([O-])O.[NH-][C@@H]1CCCC[C@H]1[NH-].[Pt+4] | > 70.2 µM | > 100 µM | 5.01 µM and 2.61 µM | > 100 µM | > 52.1 µM and 14.5 µM | > 100 µM | 18.4 µM and 12.3 µM | > 100 µM and 91.1 µM | 32.2 µM and 4.83 µM | > 100 µM and 30.5 µM | > 100 µM and 18.3 µM | > 100 µM | 13.7 µM and 3.16 µM | > 100 µM | 81 µM and 10.6 µM | > 100 µM and 64.5 µM | > 95.5 µM and 13.2 µM | > 100 µM | 98.4 µM and 37.4 µM | > 100 µM
10 | COC(=O)c1c2c(c(C)[n+]([O-])c1C)C(=O)C=C(NCc1ccc(OC)cc1)C2=O | 0.794 µM | 2.21 µM | 2.4 µM | 7.08 µM | 2.3 µM | 6.13 µM | 1.36 µM | 4.35 µM | 2.2 µM | 6.83 µM | 1.59 µM | 6.21 µM | 2.03 µM | 9.26 µM | 1.54 µM | 4.78 µM | 2.48 µM | 7.84 µM | 3.08 µM | 9.3 µM
11 | COc1c(Cl)c2c(c(OC)c1OC)-c1ccc(SC)c(=O)cc1[C@@H](NC(=O)OCC(F)(F)F)CC2 | < 0.01 µM | < 0.01 µM | < 0.01 µM | 0.218 µM | < 0.01 µM | > 100 µM | < 0.01 µM | > 100 µM |  | > 61.9 µM | < 0.01 µM | < 0.01 µM | < 0.01 µM | 8.21 µM | < 0.01 µM | 3.99 µM | < 0.01 µM | > 100 µM | < 0.01 µM | > 100 µM
12 | Cn1nc(-c2ccccc2)nc1[N+](=O)[O-] |  | > 10 µM |  | > 10 µM |  | > 10 µM |  | > 10 µM |  | > 10 µM |  | > 10 µM |  | > 10 µM |  | > 10 µM |  | > 10 µM |  | > 10 µM
13 | O=C1c2cc([N+](=O)[O-])ccc2-c2cccc(F)c21 |  | > 100 µM |  | > 100 µM |  | > 100 µM |  | > 100 µM |  | > 100 µM |  | > 100 µM |  | > 100 µM |  | > 100 µM |  | > 100 µM |  | > 100 µM
